From patent publication US8163929B2, “Dihydropyridone amides as P2X7 modulators” (Roche Palo Alto LLC, priority 2008, dated 2012)

target: T1, P2X7 (UniProt Q99572); test: P2X7 activity of Table 1; type: cell-based; settings: pIC50 values for P2X7
T1 sequence (Q99572 1-595): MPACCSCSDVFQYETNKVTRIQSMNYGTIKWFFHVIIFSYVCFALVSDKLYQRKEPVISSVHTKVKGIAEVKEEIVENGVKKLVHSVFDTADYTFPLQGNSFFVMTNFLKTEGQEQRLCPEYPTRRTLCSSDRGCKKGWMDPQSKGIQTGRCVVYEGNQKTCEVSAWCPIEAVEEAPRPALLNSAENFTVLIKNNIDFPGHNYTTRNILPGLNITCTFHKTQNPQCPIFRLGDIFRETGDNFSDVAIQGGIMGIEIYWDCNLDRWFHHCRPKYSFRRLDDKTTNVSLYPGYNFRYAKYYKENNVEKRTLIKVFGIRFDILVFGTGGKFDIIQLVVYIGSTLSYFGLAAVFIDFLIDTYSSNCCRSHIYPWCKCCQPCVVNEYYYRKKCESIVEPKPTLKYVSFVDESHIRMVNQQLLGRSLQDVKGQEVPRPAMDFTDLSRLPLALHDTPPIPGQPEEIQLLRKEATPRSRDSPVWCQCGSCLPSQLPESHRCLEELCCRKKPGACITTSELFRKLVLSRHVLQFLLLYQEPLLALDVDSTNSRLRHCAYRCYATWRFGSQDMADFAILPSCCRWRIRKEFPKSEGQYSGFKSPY
How it was run: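 FLIPR calcium flux with fluo-3 in 1321N1 cells expressing human P2X7 and HEK293 cells expressing rat P2X7, in HBSS with 2 mM CaCl2 and 2.5 mM probenecid. Antagonist pre-incubated 20 min at room temperature, then BzATP added (100 μM human, 5 μM rat). Peak response over 5 min normalised to 5 μM ionomycin.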

Row | SMILES | pIC50
1 | Cc1ccc(-c2cc(C)n(CCO)n2)cc1NC(=O)C1=CN(C)C(=O)C[C@H]1c1cccc(F)c1 [Compound 70, (S)-4-(3-Fluoro-phenyl)-1-methyl-6-ox-1,4,5,6-tetrahydro-pyridine-3-carboxylic acid {5-[1-(2-hydroxy-ethyl)-5-methyl-1H-pyrazol-3-yl]-2-methyl-phenyl}-amide] | 7.72
2 | Cc1ccc(-c2ccnn(C)c2=O)cc1NC(=O)C1=CNC(=O)C[C@H]1c1ccc(F)cc1 [Compound 71, (S)-4-(4-Fluoro-phenyl)-6-oxo-1,4,5,6-tetrahydro-pyridine-3-carboxylic acid [2-methyl-5-(2-methyl-3-oxo-2,3-dihydro-pyridazin-4-yl)-phenyl]-amide] | 8.395
3 | Cc1ccc(-c2ccn[nH]c2=O)cc1NC(=O)C1=CN(C)C(=O)C[C@H]1c1ccc(F)cc1 [Compound 72, (S)-4-(4-Fluoro-phenyl)-1-methyl-6-oxo-1,4,5,6-tetrahydro-pyridine-3-carboxylic acid [2-methyl-5-(3-oxo-2,3-dihydro-pyridazin-4-yl)-phenyl]-amide] | 7.8367
4 | COC[C@H](O)Cn1c(=O)cnn(-c2ccc(C)c(NC(=O)C3=CN(C)C(=O)C[C@H]3c3ccc(F)cc3)c2)c1=O [Compound 77, (S)-4-(4-Fluoro-phenyl)-1-methyl-6-oxo-1,4,5,6-tetrahydro-pyridine-3-carboxylic acid {5-[4-((R)-2-hydroxy-3-methoxy-propyl)-3,5-dioxo-4,5-dihydro-3H-[1,2,4]triazin-2-yl]-2-methyl-phenyl}-amide] | 7.5367
5 | Cc1ccc(=O)n(-c2ccc(C)c(NC(=O)C3=CNC(=O)C[C@H]3c3ccc(F)cc3)c2)n1 [Compound 78, (S)-4-(4-Fluoro-phenyl)-6-oxo-1,4,5,6-tetrahydro-pyridine-3-carboxylic acid [2-methyl-5-(3-methyl-6-oxo-6H-pyridazin-1-yl)-phenyl]-amide] | 7.31
6 | Cc1cncc(-c2ccc(C)c(NC(=O)C3=CNC(=O)C[C@H]3c3ccc(F)cc3)c2)n1 [Compound 79, (S)-4-(4-Fluoro-phenyl)-6-oxo-1,4,5,6-tetrahydro-pyridine-3-carboxylic acid [2-methyl-5-(6-methyl-pyrazin-2-yl)-phenyl]-amide] | 6.58
7 | Cc1ccnc(-c2ccc(C)c(NC(=O)C3=CNC(=O)C[C@H]3c3ccc(F)cc3)c2)n1 [Compound 80, (S)-4-(4-Fluoro-phenyl)-6-oxo-1,4,5,6-tetrahydro-pyridine-3-carboxylic acid [2-methyl-5-(4-methyl-pyrimidin-2-yl)-phenyl]-amide] | 7.315
8 | Cc1ccc(-c2ccnn(C)c2=O)cc1NC(=O)C1=CN(C)C(=O)C[C@H]1c1ccc(F)cc1 [Compound 81, (S)-4-(4-Fluoro-phenyl)-1-methyl-6-oxo-1,4,5,6-tetrahydro-pyridine-3-carboxylic acid [2-methyl-5-(2-methyl-3-oxo-2,3-dihydro-pyridazin-4-yl)-phenyl]-amide] | 7.94
9 | Cc1ccc(-c2cncc(=O)[nH]2)cc1NC(=O)C1=CNC(=O)C[C@H]1c1ccc(F)cc1 [Compound 82, (S)-4-(4-Fluoro-phenyl)-6-oxo-1,4,5,6-tetrahydro-pyridine-3-carboxylic acid [2-methyl-5-(6-oxo-1,6-dihydro-pyrazin-2-yl)-phenyl]-amide] | 5.395
10 | Cc1ccc(-c2ccnn(C)c2=O)cc1NC(=O)C1=CN(C)C(=O)C[C@H]1c1cccc(F)c1 [Compound 86, (S)-4-(3-Fluoro-phenyl)-1-methyl-6-oxo-1,4,5,6-tetrahydro-pyridine-3-carboxylic acid [2-methyl-5-(2-methyl-3-oxo-2,3-dihydro-pyridazin-4-yl)-phenyl]-amide] | 7.62
11 | Cc1ccc(-c2ccn[nH]c2=O)cc1NC(=O)C1=CN(C)C(=O)C[C@H]1c1cccc(F)c1 [Compound 87, (S)-4-(3-Fluoro-phenyl)-1-methyl-6-oxo-1,4,5,6-tetrahydro-pyridine-3-carboxylic acid [2-methyl-5-(3-oxo-2,3-dihydro-pyridazin-4-yl)-phenyl]-amide] | 7.884
12 | Cc1ccc(-n2ncccc2=O)cc1NC(=O)C1=CNC(=O)C[C@H]1c1cccc(F)c1 [Compound 89, (S)-4-(3-Fluoro-phenyl)-6-oxo-1,4,5,6-tetrahydro-pyridine-3-carboxylic acid [2-methyl-5-(6-oxo-6H-pyridazin-1-yl)-phenyl]-amide] | 7.53
13 | Cc1ccc(-c2ccnn(CCO)c2=O)cc1NC(=O)C1=CN(C)C(=O)C[C@H]1c1cccc(F)c1 [Compound 93, (S)-4-(3-Fluoro-phenyl)-1-methyl-6-oxo-1,4,5,6-tetrahydro-pyridine-3-carboxylic acid {5-[2-(2-hydroxy-ethyl)-3-oxo-2,3-dihydro-pyridazin-4-yl]-2-methyl-phenyl}-amide] | 7.5

Next, values leading:

Row | pIC50 | SMILES
14 | 7.92 | Cc1ccc(-c2cc(C)n(CCO)n2)cc1NC(=O)C1=CNC(=O)C[C@H]1c1cccc(F)c1 [Compound 69, (S)-4-(3-Fluoro-phenyl)-6-oxo-1,4,5,6-tetrahydro-pyridine-3-carboxylic acid {5-[1-(2-hydroxy-ethyl)-5-methyl-1H-pyrazol-3-yl]-2-methyl-phenyl}-amide]
15 | 7.255 | Cc1ccc(-c2cc(C)n(C[C@@H](C)O)n2)cc1NC(=O)C1=CN(C)C(=O)C[C@H]1c1ccc(F)cc1 [Compound 73, (S)-4-(4-Fluoro-phenyl)-1-methyl-6-oxo-1,4,5,6-tetrahydro-pyridine-3-carboxylic acid {5-[1-((R)-2-hydroxy-propyl)-5-methyl-1H-pyrazol-3-yl]-2-methyl-phenyl}-amide]
16 | 7.47 | Cc1ccc(-c2cc(C)n(C[C@H](C)O)n2)cc1NC(=O)C1=CN(C)C(=O)C[C@H]1c1ccc(F)cc1 [Compound 74, (S)-4-(4-Fluoro-phenyl)-1-methyl-6-oxo-1,4,5,6-tetrahydro-pyridine-3-carboxylic acid {5-[1-((S)-2-hydroxy-propyl)-5-methyl-1H-pyrazol-3-yl]-2-methyl-phenyl}-amide]
17 | 7.72 | COC[C@H](O)Cn1nc(-c2ccc(C)c(NC(=O)C3=CNC(=O)C[C@H]3c3ccc(F)cc3)c2)cc1C [Compound 75, (S)-4-(4-Fluoro-phenyl)-6-oxo-1,4,5,6-tetrahydro-pyridine-3-carboxylic acid {5-[1-((R)-2-hydroxy-3-methoxy-propyl)-5-methyl-1H-pyrazol-3-yl]-2-methyl-phenyl}-amide]
18 | 7.45 | COC[C@H](O)Cn1nc(-c2ccc(C)c(NC(=O)C3=CN(C)C(=O)C[C@H]3c3ccc(F)cc3)c2)cc1C [Compound 76, (S)-4-(4-Fluoro-phenyl)-1-methyl-6-oxo-1,4,5,6-tetrahydro-pyridine-3-carboxylic acid {5-[1-((R)-2-hydroxy-3-methoxy-propyl)-5-methyl-1H-pyrazol-3-yl]-2-methyl-phenyl}-amide]
19 | 6.335 | Cc1ccc(-c2cc(C)n(CC(=O)O)n2)cc1NC(=O)C1=CNC(=O)C[C@H]1c1ccc(F)cc1 [Compound 83, [3-(3-{[(S)-4-(4-Fluoro-phenyl)-6-oxo-1,4,5,6-tetrahydro-pyridine-3-carbonyl]-amino}-4-methyl-phenyl)-5-methyl-pyrazol-1-yl]-acetic acid]
20 | 7.53 | Cc1ccc(-c2ccn(CCO)n2)cc1NC(=O)C1=CNC(=O)C[C@H]1c1ccc(F)cc1 [Compound 84, (S)-4-(4-Fluoro-phenyl)-6-oxo-1,4,5,6-tetrahydro-pyridine-3-carboxylic acid {5-[1-(2-hydroxy-ethyl)-1H-pyrazol-3-yl]-2-methyl-phenyl}-amide]
21 | 7.375 | Cc1ccc(-c2cc(C)n(CCO)n2)cc1NC(=O)C1=CNC(=O)CC1c1ccc(F)c(F)c1 (stereo not drawn) [Compound 85, 4-(3,4-Difluoro-phenyl)-6-oxo-1,4,5,6-tetrahydro-pyridine-3-carboxylic acid {5-[1-(2-hydroxy-ethyl)-5-methyl-1H-pyrazol-3-yl]-2-methyl-phenyl}-amide]
22 | 7.2 | COC[C@H](O)Cn1nc(-c2ccc(C)c(NC(=O)C3=CN(C)C(=O)C[C@H]3c3cccc(F)c3)c2)cc1C [Compound 90, (S)-4-(3-Fluoro-phenyl)-1-methyl-6-oxo-1,4,5,6-tetrahydro-pyridine-3-carboxylic acid {5-[1-((R)-2-hydroxy-3-methoxy-propyl)-5-methyl-1H-pyrazol-3-yl]-2-methyl-phenyl}-amide]
23 | 7.15 | COC[C@@H](O)Cn1nc(-c2ccc(C)c(NC(=O)C3=CNC(=O)C[C@H]3c3ccc(F)cc3)c2)cc1C [Compound 91, (S)-4-(4-Fluoro-phenyl)-6-oxo-1,4,5,6-tetrahydro-pyridine-3-carboxylic acid {5-[1-((S)-2-hydroxy-3-methoxy-propyl)-5-methyl-1H-pyrazol-3-yl]-2-methyl-phenyl}-amide]
24 | 6.615 | COC[C@@H](O)Cn1nc(-c2ccc(C)c(NC(=O)C3=CN(C)C(=O)C[C@H]3c3ccc(F)cc3)c2)cc1C [Compound 92, (S)-4-(4-Fluoro-phenyl)-1-methyl-6-oxo-1,4,5,6-tetrahydro-pyridine-3-carboxylic acid {5-[1-((S)-2-hydroxy-3-methoxy-propyl)-5-methyl-1H-pyrazol-3-yl]-2-methyl-phenyl}-amide]
